Data set [1] deals with coronary and cerebral arteries. Conditions: in vitro; cited from earlier work.
The nature of data set [2]: single oral dose pharmacokinetics study of estetrol in healthy postmenopausal volunteers. Conditions: for Cmax: po. It is filed as in vivo, human. How it is done: (§1) A double-blind, randomized, placebo-controlled, single dose study was performed to determine the safety, tolerability and pharmacokinetics of 1, 10 and 100 mg orally administered estetrol in healthy postmenopausal volunteers (menopause defined as ≧12 months amenorrhea or six months amenorrhea with serum FSH levels ≧40 IU/L and serum E2<73 pmol/L), a Body Mass Index of 18-30 kg/m^2, non-smoking, good physical and mental health as judged by the investigator determined by medical history, physical examination, clinical laboratory, vital signs and ECG recording). In each dose group, six subjects received estetrol treatment and two subjects received placebo.
Estetrol and placebo medication was formulated as a solution (propylene glycol/water mixture) and was delivered in separate bottles for each volunteer. Bottles contained 1 mg or 10 mg estetrol per 50 ml for subjects of the groups that received 1 mg or 10 mg estetrol and 100 mg per 200 ml for the group receiving 100 mg estetrol.
(§2) Screening took place within two weeks before investigational drug administration. During and after drug administration, subjects were admitted to a Clinical Pharmacology Unit for approximately 60 hours for intensive safety monitoring. Safety and tolerability were documented by monitoring (serious) adverse events, physical examinations including vital signs, and safety laboratory assessments (hematology, biochemistry, urinalysis). Frequent blood sampling (within the range of 15 minutes to 168 hours) was performed to assess estetrol plasma concentration and pharmacokinetic variables. For this, plasma samples were subjected to liquid-liquid extraction (hexane and diethyl ether) and further subjected to HPLC analysis (Perkin Elmer 200) and tandem mass spectrometry using a PE Sciex 4000 tandem mass spectrometer and APCI interface. With each sample batch, a calibration curve with 6 calibrators was recorded. The calibration curve was calculated using linear regression (correlation coefficient >0.98), which permitted quantification of estetrol plasma concentrations.

Data set [3] in a line: safety and tolerability of single oral doses of estetrol in healthy postmenopausal volunteers. It is filed as in vivo, human. The procedure:
as §1, §2

Data set [4] deals with angina pectoris induced by coronary artery disease. In words: clinical trial of on demand oral estetrol versus placebo in angina pectoris. It is filed as in vivo, human. Conditions: 100 mg per dose. How it is done:
A clinical trial is conducted with single dose, on demand oral estetrol administration of 100 mg in subjects suffering from documented angina pectoris and is compared to placebo treatment. Additionally, patients in this trial are offered to use their standard on demand medication, e.g. nitroglycerin. Hundred patients, males and females, with a diagnosis of angina pectoris induced by coronary artery disease, substantiated by positive dynamic tests of myocardial ischaemia, participate in the clinical trial. Patients are selected according to the following inclusion (I) and exclusion (E) criteria: Patients with clear angina pectoris diagnosis (I), patients having chest pain attacks more than two times a week (I). Patients with active myocardial infarct or other cardiopulmonary heart disease, such as severe psychoneurosis, menopausal syndrome and chest pain caused by cervical spondylopathy (E), patients of angina pectoris combined with hypertension (bloodpressure >24/14.87 Kpa) (E), patients of severe cardiopulmonary function deficiency, severe arrhythmia, abnormal liver and renal function and/or hematopoietic disease (E), breast-feeding women and patients with a known history of allergic disease (E), patients younger than 18 or older than 70 (E).
The diagnostic standard for angina pectoris severity is used to describe baseline patient characteristics and subsequently to monitor treatment efficacy (see below).
Low-grade: Typical attack of angina pectoris, which usually lasts a few minutes and occurs 1-3 times a day. The attack is not severe, but the patient sometimes needs to take nitroglycerin. Mid-grade: Angina attack occurs more than 3 times everyday and lasts several to ten minutes every time. The pain is more severe than that of the low-grade attack and the patient generally needs sublingual nitroglycerin. High-grade: Angina attack occurs frequently daily. It lasts longer and more seriously. Routine life is affected. The patient needs to use nitroglycerin frequently.
The diagnostic standard for angina pectoris types is used to describe baseline characteristics and classify patient types.
Exertionally-induced angina pectoris: The transient attack of chest pain is caused typically by exertion or other conditions that increase myocardial oxygen demands. The pain normally disappears rapidly after rest or administration of sublingual nitroglycerin. Spontaneous angina pectoris: The attack of chest pain is not obviously related to increase of myocardial oxygen consumption. Compared with tiredness-induced angina pectoris, the pain lasts longer and is more severe. It can not be easily alleviated by nitroglycerin. Mixed Angina Pectoris: Spontaneous angina pectoris can come with tiredness-induced angina pectoris and is classified as mixed angina pectoris. […]

Another data set deals with migraine. Description: double-blind, placebo-controlled, multiple attack clinical study of on demand oral estetrol in migraine. It is filed as in vivo, human. How it is done:
A double-blind, placebo-controlled, multiple attack clinical study is conducted with single dose, on demand oral estetrol administration in adult volunteers (20 females and 20 males) each of whom is seeking migraine relief. Participating subjects show at least a 1-year history of migraine as is defined by International Headache Society criteria (IHS; Headache Classification Committee of the International Headache Society, 1988, Cephalalgia 8 (Suppl. 7):19-28) and report regularly occurring migraines with episodes of pain, photophobia and nausea. Each participant receives blinded medication in two differently labeled bottles, filled with tablets. One bottle comprises tablets that contain 100 mg estetrol, whilst the other bottle contains identical placebo tablets. Participants are allowed to choose from which bottle to orally ingest a tablet at the moment the first symptoms of a migraine attack become apparent. Patients are asked to keep daily records stating the number of migraine attacks, severity of attacks, duration of attacks and use of medication (bottle 1 or bottle 2) for the entire study period of 2 months.

In data set [5] the test system is erectile dysfunction primarily due to vascular causes. In words: clinical trial of on demand oral estetrol versus placebo in erectile dysfunction (SFQ). It is filed as in vivo, human. The following applies: 100 mg per dose. How it is done: As a novel method single dose, on demand oral estetrol administration is tested to treat erectile dysfunction and compared to placebo treatment. A clinical trial is performed in 20 subjects, experiencing erectile dysfunction that is primarily due to vascular causes and in whom intracavernous injection of either papaverine or phentolamine has been previously proven successful in restoring erectile function. Ten subjects receive estetrol medication (100 mg per dose) and 10 subjects receive placebo medication in this outclinic study. Subjects with mild, moderate as well as severe symptoms of erectile dysfunction are instructed on the use of investigational drug medication, which is preferentially being taken 15 minutes to 2 hours before sexual activity. At the start of the trial, subjects are asked to fill out a baseline Sexual Functioning Questionnaire (SFQ). The SFQ is used as the primary endpoint, since this is a self-administered questionnaire and designed to measure changes in sexual function (Smith et al., 2002, British J. Psych., 181:49-55). It asks detailed questions about libido, physical arousal (erection), masturbation, orgasm and ejaculation. It is designed such that higher scores indicate greater dysfunction. Typically total normal controls scores are less than 14 and sexually disfunctioning patients show total scores of more than 18 (Smith et al., 2002, British J. Psych., 181:49-55). […] At the end of the study period at 4 weeks, subject's responses to SFQ survey questions are compared to SFQ responses at baseline. For separate SFQ variables, a comparison is made of those subjects who initially show a bad baseline score. The results are then pooled and expressed as the percentage of subjects with improvement.

These results are taken from patent US20090221540A1, “Method of Treating An Acute Vascular Disorder” (PANTARHEI BIOSCIENCE B.V., priority 2006, published 2009).

Read-outs that look alike come from different tables or passages of the source.

Turning to `C[C@]12CC[C@@H]3c4ccc(O)cc4CC[C@H]3[C@@H]1CC[C@@H]2O` [17β-estradiol], the “effect on coronary and cerebral arteries” value in data set [1] was “relaxant effect”.
For `C[C@]12CC[C@@H]3c4ccc(O)cc4CC[C@H]3[C@@H]1[C@@H](O)[C@@H](O)[C@@H]2O` [estetrol, 1,3,5 (10)-estratrien-3,15α,16α,17β-tetrol], the “time of maximum plasma concentrations post-dosing” value in data set [2] (1 mg oral dose group) turned out to be 15 min. Further, the Cmax in data set [2] (female, human, plasma, 1 mg, 1 mg oral estetrol, read-out: Cmax (median)) was 0.52 ng/mL; in data set [2] (female, human, plasma, 1 mg, 1 mg oral estetrol, read-out: Cmax (range)), 0.39 to 1.2 ng/mL; in data set [2] (female, human, plasma, 10 mg, 10 mg oral estetrol, read-out: Cmax (median)) it was 9.4 ng/mL; in data set [2] (female, human, plasma, 10 mg, 10 mg oral estetrol, read-out: Cmax (range)) it was 5.4 to 11.6 ng/mL; in data set [2] (female, human, plasma, 100 mg, 100 mg oral estetrol, read-out: Cmax (median)) it was 148 ng/mL; in data set [2] (female, human, plasma, 100 mg, 100 mg oral estetrol, read-out: Cmax (range)), 119 to 213 ng/mL. In data set [2] (female, human, plasma, single oral dose, final elimination phase, read-out: terminal half-life (converted)), the half-life was ~28 h. The gastro-intestinal absorption result in data set [2] (oral dosing 1, 10 and 100 mg) is given as “good gastro-intestinal absorption”. Also, the “inter-subject variability of pharmacokinetic profile” value in data set [2] (oral dosing 1, 10 and 100 mg) is reported as “low inter-subject variability”. Moreover, the speed of absorption entry in data set [2] (single oral dose) is recorded as “extremely fast”. For the same compound, the “start of slow phase of final elimination post-dosing” value in data set [2] (single oral dose) was “approximately 24 hours”. Also, the “changes in vital signs, haematology, biochemistry or urinalysis” value in data set [3] (1, 10 and 100 mg estetrol) was “no clinically significant changes”. The “severe or serious adverse events” value in data set [3] (1, 10 and 100 mg estetrol) is given as “No severe or serious adverse events”. Besides, in data set [3] (single oral doses of 1, 10 and 100 mg), the “safety and tolerability profile” value is “safe and well tolerated”. For the same compound, in data set [4] (on demand oral), the “patient-reported effect on angina pectoris symptoms” value is on record as “relief of angina pectoris symptoms”. For the same compound, the “side effects versus placebo” value in data set [4] (on demand oral, 4 weeks) is “no obvious side effects”. Also, the “use of nitroglycerin versus placebo arm” value in data set [4] (on demand oral, 4 weeks) is “significantly lower than in the placebo arm”. The “improvement of exercise tolerance, ability to extend the duration of walking and quality of life” value in data set [4] (versus placebo) is on record as “statistically more improvement”. Also, in the data set with migraine (100 mg estetrol tablets), the “headache and relief of migraine symptoms versus baseline analgesic and/or triptan-type medication” value was “less headache and more quicker relief of migraine symptoms”. Further, the “side effects directly related to investigational drug” value in the data set on migraine (100 mg estetrol tablets, on demand, 2 months) is reported as “No apparent side effects”. In addition, the “tablet use by participants, estetrol versus placebo” value with migraine (free choice between blinded bottles, 2 months) is “significantly more estetrol containing tablets than placebo tablets”. Also, in data set [5] (SFQ at 4 weeks), the “improvement in satisfaction with overall sex life versus placebo” value was “more subjects report improvement”. The “percentage of subjects with improvement in the ability to develop and maintain erections versus placebo” value in data set [5] (SFQ at 4 weeks versus baseline) was “higher percentage of subjects that show improvement”. Moreover, in data set [5] (on demand oral, 4 weeks), the tolerability entry is recorded as “well tolerated”.

Broadly, the Cmax is the peak of the concentration-time curve. A word on the half-life: it is the time needed for the level to fall by half in the phase considered.
